Patent US20240043427A1 (Gilead Sciences, Inc., priority 2020, published 2024)
pEC50, pIC50: −log10 of the molar value.

How the values were obtained:
CD73 [1] = biological target: T1, CD73 (Homo sapiens (Human), UniProt P21589); assay type: biochemical; details: 1 mM NaH2PO4 in enzyme buffer, CD73 0.3 nM, AMP 15 uM
CD73 [2] = biological target: T1, CD73; assay: MDA-MB-231 Cell Based CD73 Activity Assay (DMEM); details: MDA-MB-231-GFP cells, DMEM medium with 10% human plasma, 200 uM AMP

T1 sequence (P21589 27-574): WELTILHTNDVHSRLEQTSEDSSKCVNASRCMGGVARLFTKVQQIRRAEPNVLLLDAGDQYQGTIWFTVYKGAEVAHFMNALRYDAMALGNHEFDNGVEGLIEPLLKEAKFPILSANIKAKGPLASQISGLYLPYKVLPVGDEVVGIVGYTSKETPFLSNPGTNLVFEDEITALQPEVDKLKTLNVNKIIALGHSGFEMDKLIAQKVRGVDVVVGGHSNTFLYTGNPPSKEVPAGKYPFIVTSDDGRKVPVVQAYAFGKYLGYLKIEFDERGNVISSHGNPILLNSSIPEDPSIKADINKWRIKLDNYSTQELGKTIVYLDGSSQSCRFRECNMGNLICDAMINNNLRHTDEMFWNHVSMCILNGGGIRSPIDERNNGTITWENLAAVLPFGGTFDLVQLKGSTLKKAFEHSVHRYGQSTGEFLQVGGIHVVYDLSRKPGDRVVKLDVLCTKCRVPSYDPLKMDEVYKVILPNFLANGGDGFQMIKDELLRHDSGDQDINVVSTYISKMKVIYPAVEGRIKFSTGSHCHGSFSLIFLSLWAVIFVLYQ

SMILES | pIC50 (CD73 [1]) | pEC50 (CD73 [2])
O=c1[nH]cc(-c2cc([C@H]3C[C@@H]3c3ccc(C(F)F)cc3)c3ncc(F)n3n2)c(=O)[nH]1 [Example 419, 5-(8-((1S,2S)-2-(4-(difluoromethyl)phenyl)cyclopropyl)-3-fluoroimidazo[1,2-b]pyridazin-6-yl)pyrimidine-2,4(1H,3H)-dione] | 8.91 | 8.05
O=c1[nH]cc(-c2cc(N3CCC4(CCC4)C3)c3nccn3n2)c(=O)[nH]1 [Example 569, 5-(8-(6-azaspiro[3.4]octan-6-yl)imidazo[1,2-b]pyridazin-6-yl)pyrimidine-2,4(1H,3H)-dione] | 8.18 | 7.95
O=c1[nH]cc(-c2cc(N3CC4(CCC4(F)F)C3)c3nccn3n2)c(=O)[nH]1 [Example 405, 5-(8-(5,5-difluoro-2-azaspiro[3.3]heptan-2-yl)imidazo[1,2-b]pyridazin-6-yl)pyrimidine-2,4(1H,3H)-dione] | 8.08 | 7.66
C[C@@H]1CN(c2cc(-c3c[nH]c(=O)[nH]c3=O)nn3c(F)cnc23)CC1(F)F [Example 519, (R)-5-(8-(3,3-difluoro-4-methylpyrrolidin-1-yl)-3-fluoroimidazo[1,2-b]pyridazin-6-yl)pyrimidine-2,4(1H,3H)-dione] | 8.18 | 7.74
O=C1N(CC(F)(F)C(F)(F)F)c2cc([C@H]3C[C@@H]3c3cc(-c4c[nH]c(=O)[nH]c4=O)nn4ccnc34)ccc2C12CC2 (racemic) [Example 737, 5-(8-((1S,2S)-2-(2′-oxo-1′-(2,2,3,3,3-pentafluoropropyl)spiro[cyclopropane-1,3′-indolin]-6′-yl)cyclopropyl)imidazo[1,2-b]pyridazin-6-yl)pyrimidine-2,4(1H,3H)-dione] | 8.75 | 9.74
O=c1[nH]cc(-c2cc(OCCc3ccccc3)c3nccn3n2)c(=O)[nH]1 [Example 673, 5-(8-phenethoxyimidazo[1,2-b]pyridazin-6-yl)pyrimidine-2,4(1H,3H)-dione] | 8.26 | 7.50
O=c1[nH]cc(-c2cc(N3C[C@H](Oc4ccc(F)c(C(F)F)c4)C(F)(F)C3)c3nccn3n2)c(=O)[nH]1 [Example 745, (S)-5-(8-(4-(3-(difluoromethyl)-4-fluorophenoxy)-3,3-difluoropyrrolidin-1-yl)imidazo[1,2-b]pyridazin-6-yl)pyrimidine-2,4(1H,3H)-dione] | 9.21 | 9.16
O=c1[nH]cc(-c2cc(N3CCC4(CCC(F)(F)CC4)C3)c3nccn3n2)c(=O)[nH]1 [Example 587, 5-(8-(8,8-difluoro-2-azaspiro[4.5]decan-2-yl)imidazo[1,2-b]pyridazin-6-yl)pyrimidine-2,4(1H,3H)-dione] | 7.63 | 7.18
O=c1[nH]cc(-c2cc([C@@H]3C[C@H]3c3ccc4cnn(CC(F)F)c4c3)c3nccn3n2)c(=O)[nH]1 [Example 124, 5-(8-((1R,2R)-2-(1-(2,2-difluoroethyl)-1H-indazol-6-yl)cyclopropyl)imidazo[1,2-b]pyridazin-6-yl)pyrimidine-2,4(1H,3H)-dione] | 8.59 | 9.21
CC1(C)CN(c2cc(-c3c[nH]c(=O)[nH]c3=O)nc3ccnn23)CC1(F)F [Example 216, 5-(7-(3,3-difluoro-4,4-dimethylpyrrolidin-1-yl)pyrazolo[1,5-a]pyrimidin-5-yl)pyrimidine-2,4(1H,3H)-dione] | 8.10 | 7.50
CC1(O)CCN(c2cc(-c3c[nH]c(=O)[nH]c3=O)nc3ccnn23)C1 (stereo not drawn) [Example 246, 5-(7-(3-hydroxy-3-methylpyrrolidin-1-yl)pyrazolo[1,5-a]pyrimidin-5-yl)pyrimidine-2,4(1H,3H)-dione] | 6.78 | 6.67
O=c1[nH]cc(-c2cc([C@H]3C[C@@H]3c3cccnc3)c3nccn3n2)c(=O)[nH]1 [Example 162, 5-(8-((1S,2S)-2-(pyridin-3-yl)cyclopropyl)imidazo[1,2-b]pyridazin-6-yl)pyrimidine-2,4(1H,3H)-dione] | 8.79 | 8.36
